Measured values reported in patent publication US4229435A, “Preparation of blood fraction” (priority 1978, dated 1980).

Tested on: factor IX
Test: Selective decrease of coagulation activity at low temperature (Example 7)
Assay type: biochemical
Settings: 0.2 mg DTT per ml plasma, 22° C.
Method: By addition of reducing agent, e.g. 0.2 mg DTT per ml plasma, at a low temperature, e.g. 22° C., it is possible to selectively influence the decrease of the coagulation activity in the different factors.

## O[C@H](CS)[C@H](O)CS [DTT, dithiothreitol]
  activity of factor IX compared with factor X: the activity of factor IX is not influenced in as high a degree as the activity of factor X
